Activity calls are given as the source filed them. Cut-off read from the data, not from the text of the source, for most assays here: actives have a measured Kd and inactives only a lower limit.
How the values were obtained:
[1] = target: Serine/threonine-protein kinase MRCK gamma (Homo sapiens, UniProt Q6DT37)
TGF-beta receptor type-1 = target: T1, TGF-beta receptor type-1 (Homo sapiens, UniProt P36897)
T1 sequence (P36897 whole entry): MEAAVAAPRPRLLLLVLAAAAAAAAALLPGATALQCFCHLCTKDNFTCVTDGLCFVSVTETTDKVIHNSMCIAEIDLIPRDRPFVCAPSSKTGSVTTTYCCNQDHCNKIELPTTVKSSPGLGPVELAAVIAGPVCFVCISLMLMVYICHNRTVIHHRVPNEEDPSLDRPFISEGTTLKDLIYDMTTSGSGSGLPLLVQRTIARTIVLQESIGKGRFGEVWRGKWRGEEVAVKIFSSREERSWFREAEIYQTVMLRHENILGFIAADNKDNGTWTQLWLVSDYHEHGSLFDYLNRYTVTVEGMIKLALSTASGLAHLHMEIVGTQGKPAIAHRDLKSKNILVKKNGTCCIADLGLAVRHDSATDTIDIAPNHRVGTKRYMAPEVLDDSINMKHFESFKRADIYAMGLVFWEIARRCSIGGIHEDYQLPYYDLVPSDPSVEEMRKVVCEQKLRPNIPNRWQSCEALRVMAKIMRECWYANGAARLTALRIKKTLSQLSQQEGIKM

[2] = target: Calcium/calmodulin-dependent protein kinase type II subunit gamma (Homo sapiens, UniProt Q13555)
Chain of Calcium/calmodulin-dependent protein kinase type II subunit gamma (Q13555 whole entry): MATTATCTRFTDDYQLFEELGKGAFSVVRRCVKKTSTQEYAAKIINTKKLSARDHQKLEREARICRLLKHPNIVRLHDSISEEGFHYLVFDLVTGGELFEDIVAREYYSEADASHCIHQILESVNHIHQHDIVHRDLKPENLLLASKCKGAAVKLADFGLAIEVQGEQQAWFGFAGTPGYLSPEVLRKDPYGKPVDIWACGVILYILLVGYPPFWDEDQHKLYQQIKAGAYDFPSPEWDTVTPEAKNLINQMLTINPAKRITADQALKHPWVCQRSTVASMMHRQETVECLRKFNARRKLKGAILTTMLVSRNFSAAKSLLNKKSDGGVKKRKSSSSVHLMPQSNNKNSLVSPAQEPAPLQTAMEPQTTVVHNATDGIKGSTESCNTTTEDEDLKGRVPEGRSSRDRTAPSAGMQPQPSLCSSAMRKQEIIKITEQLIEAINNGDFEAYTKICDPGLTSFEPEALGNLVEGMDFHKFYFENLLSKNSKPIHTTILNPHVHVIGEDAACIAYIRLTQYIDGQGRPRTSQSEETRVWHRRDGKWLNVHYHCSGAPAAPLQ

[3] = target: Dual specificity protein kinase CLK1 (Homo sapiens, UniProt P49759)
Chain of Dual specificity protein kinase CLK1 (P49759 whole entry): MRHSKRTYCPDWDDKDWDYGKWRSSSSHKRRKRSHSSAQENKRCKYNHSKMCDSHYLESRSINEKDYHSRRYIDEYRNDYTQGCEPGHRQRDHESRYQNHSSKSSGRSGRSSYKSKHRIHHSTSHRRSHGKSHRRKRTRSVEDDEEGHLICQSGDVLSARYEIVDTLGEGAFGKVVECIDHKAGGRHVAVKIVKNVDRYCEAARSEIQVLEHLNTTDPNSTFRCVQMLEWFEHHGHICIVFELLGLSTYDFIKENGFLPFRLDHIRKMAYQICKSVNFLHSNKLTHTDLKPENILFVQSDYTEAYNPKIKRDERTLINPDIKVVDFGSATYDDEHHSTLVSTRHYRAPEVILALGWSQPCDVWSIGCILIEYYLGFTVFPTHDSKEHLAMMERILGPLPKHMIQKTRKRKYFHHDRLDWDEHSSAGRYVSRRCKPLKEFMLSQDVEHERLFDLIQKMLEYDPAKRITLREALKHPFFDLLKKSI

[4] = target: T2, Serine/threonine-protein kinase TAO2 (Homo sapiens, UniProt Q9UL54)
T2 sequence (Q9UL54 whole entry): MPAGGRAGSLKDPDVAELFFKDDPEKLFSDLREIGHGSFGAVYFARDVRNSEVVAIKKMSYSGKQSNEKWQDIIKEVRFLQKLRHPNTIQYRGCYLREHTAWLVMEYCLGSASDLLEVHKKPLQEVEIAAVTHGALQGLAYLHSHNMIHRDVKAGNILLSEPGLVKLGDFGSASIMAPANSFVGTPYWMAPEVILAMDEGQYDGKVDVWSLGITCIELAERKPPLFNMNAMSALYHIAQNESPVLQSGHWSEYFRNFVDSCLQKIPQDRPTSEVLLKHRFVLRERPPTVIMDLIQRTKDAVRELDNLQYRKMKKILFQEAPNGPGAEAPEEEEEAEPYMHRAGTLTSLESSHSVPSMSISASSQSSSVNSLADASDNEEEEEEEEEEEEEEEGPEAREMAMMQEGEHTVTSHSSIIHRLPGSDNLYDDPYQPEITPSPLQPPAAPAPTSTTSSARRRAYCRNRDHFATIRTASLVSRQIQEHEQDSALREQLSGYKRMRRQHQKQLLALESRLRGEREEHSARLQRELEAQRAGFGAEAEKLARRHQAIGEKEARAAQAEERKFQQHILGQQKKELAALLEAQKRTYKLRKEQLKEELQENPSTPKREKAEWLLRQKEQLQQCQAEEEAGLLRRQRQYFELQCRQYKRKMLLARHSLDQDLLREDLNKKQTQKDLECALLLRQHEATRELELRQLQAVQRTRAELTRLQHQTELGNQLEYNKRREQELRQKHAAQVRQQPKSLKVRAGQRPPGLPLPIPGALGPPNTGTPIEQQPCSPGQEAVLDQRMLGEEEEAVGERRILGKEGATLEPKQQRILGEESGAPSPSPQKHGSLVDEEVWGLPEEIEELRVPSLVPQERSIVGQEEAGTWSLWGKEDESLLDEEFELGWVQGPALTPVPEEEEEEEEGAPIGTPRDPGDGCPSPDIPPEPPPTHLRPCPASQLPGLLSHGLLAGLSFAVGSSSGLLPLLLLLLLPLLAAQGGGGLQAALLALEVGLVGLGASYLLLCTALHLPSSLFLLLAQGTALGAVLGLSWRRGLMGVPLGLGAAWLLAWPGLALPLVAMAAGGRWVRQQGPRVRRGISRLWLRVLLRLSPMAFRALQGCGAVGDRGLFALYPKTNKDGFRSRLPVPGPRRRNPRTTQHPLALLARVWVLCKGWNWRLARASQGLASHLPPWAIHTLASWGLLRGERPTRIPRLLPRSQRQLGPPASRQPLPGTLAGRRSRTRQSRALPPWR

Ephrin type-A receptor 1 = target: T3, Ephrin type-A receptor 1 (Homo sapiens, UniProt P21709)
T3 sequence (P21709 whole entry): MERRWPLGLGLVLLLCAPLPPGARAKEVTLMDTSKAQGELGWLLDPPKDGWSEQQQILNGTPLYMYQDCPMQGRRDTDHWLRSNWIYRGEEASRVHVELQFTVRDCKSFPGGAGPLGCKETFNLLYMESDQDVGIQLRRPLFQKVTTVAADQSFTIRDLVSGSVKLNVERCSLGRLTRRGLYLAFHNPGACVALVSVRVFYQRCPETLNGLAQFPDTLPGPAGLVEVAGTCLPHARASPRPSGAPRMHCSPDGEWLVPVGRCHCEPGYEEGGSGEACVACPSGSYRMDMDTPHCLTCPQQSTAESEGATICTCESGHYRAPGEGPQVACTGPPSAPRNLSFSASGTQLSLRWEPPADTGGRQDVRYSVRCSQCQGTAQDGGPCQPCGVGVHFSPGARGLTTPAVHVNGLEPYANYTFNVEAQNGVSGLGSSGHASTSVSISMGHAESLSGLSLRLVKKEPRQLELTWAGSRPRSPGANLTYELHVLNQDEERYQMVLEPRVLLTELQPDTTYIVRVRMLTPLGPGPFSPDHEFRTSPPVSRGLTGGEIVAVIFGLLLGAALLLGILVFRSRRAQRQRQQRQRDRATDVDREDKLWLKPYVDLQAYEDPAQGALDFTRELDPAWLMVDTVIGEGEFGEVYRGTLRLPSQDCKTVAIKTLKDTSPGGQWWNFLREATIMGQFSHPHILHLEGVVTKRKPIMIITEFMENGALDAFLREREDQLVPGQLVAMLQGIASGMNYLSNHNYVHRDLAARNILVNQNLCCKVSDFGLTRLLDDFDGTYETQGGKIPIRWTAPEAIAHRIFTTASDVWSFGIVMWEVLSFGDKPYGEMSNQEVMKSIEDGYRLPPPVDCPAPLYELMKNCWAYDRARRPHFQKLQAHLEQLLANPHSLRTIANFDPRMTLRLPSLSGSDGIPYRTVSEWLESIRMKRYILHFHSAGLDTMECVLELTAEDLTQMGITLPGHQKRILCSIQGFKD
Note: in the data inactive means no Kd found up to 30 µM.

Chain of Serine/threonine-protein kinase MRCK gamma (Q6DT37 whole entry): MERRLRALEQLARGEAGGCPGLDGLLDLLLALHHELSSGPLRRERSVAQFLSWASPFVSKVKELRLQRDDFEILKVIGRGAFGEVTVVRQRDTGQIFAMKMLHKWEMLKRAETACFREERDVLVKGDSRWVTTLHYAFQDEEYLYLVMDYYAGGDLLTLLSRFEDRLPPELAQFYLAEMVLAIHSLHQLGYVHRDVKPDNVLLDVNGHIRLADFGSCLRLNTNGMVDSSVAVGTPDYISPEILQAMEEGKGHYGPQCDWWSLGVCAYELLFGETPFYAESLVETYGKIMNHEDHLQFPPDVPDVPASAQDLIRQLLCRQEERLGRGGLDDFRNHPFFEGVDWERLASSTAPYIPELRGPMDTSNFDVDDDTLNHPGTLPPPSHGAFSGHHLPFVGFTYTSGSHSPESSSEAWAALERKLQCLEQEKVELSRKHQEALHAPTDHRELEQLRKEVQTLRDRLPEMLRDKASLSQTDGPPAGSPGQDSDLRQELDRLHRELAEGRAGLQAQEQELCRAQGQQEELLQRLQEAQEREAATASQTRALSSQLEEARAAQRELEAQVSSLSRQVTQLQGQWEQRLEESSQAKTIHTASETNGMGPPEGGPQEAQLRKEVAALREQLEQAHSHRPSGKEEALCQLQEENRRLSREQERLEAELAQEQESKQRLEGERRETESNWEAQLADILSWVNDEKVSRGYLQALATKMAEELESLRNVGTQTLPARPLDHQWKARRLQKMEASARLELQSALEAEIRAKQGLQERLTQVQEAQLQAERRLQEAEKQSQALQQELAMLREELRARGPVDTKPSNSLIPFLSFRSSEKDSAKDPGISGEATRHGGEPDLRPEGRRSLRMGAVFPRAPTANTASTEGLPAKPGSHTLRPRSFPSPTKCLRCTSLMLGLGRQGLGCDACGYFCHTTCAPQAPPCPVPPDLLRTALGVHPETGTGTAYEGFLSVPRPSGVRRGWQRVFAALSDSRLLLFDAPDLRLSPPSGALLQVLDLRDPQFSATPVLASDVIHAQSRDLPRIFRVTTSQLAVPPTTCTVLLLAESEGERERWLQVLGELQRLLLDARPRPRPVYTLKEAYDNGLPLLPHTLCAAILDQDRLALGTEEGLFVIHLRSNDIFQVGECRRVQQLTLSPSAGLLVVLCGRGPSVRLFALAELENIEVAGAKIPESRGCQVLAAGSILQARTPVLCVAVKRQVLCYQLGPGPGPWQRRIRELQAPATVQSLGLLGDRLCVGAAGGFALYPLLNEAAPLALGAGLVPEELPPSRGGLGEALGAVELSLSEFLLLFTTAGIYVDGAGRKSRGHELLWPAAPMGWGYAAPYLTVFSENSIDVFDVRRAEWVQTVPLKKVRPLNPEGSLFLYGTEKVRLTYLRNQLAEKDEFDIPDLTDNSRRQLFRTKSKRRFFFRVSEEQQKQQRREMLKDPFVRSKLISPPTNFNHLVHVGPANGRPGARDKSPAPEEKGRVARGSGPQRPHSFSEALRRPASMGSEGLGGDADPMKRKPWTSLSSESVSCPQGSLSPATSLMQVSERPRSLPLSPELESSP

| Compound | Kd [1] | Kd (TGF-beta receptor type-1) | Kd [2] | Kd [3] | Kd [4] | Kd (Ephrin type-A receptor 1) |
| --- | --- | --- | --- | --- | --- | --- |
| O=C(Nc1cc(C(F)(F)F)cc(C(F)(F)F)c1)c1cc(Cl)ccc1O [IMD-0354] | > 30 µM (inactive) | > 30 µM (inactive) | > 30 µM (inactive) | > 30 µM (inactive) | > 30 µM (inactive) | > 30 µM (inactive) |
| CNC(=O)c1cccc2cc(Oc3ccnc4cc(OCC5(N)CC5)c(OC)cc34)ccc12 [LUCITANIB] | > 30 µM (inactive) | > 30 µM (inactive) | > 30 µM (inactive) | > 30 µM (inactive) | > 30 µM (inactive) | > 30 µM (inactive) |
| CNC(=O)c1nn(C)c2c1C(C)(C)Cc1cnc(Nc3ccc(N4CCN(C)CC4)cc3)nc1-2 [MILCICLIB] | > 30 µM (inactive) | > 30 µM (inactive) | > 30 µM (inactive) | 0.008 µM (active) | 5.25 µM (active) | > 30 µM (inactive) |
| NC1(c2ccc(-c3nc4ccn5c(=O)[nH]nc5c4cc3-c3ccccc3)cc2)CCC1 [MK-2206] | > 30 µM (inactive) | > 30 µM (inactive) | > 30 µM (inactive) | > 30 µM (inactive) | > 30 µM (inactive) | > 30 µM (inactive) |
| Cn1cc(-c2cnc3ccc4ccc(CS(=O)(=O)NCc5ccccn5)cc4c(=O)c3c2)cn1 [MK-8033] | > 30 µM (inactive) | > 30 µM (inactive) | > 30 µM (inactive) | > 30 µM (inactive) | > 30 µM (inactive) | > 30 µM (inactive) |
| FC(F)(F)c1ccc(/C=C/c2nc(COc3ccc(CCCCn4ccnn4)cc3)co2)cc1 [MUBRITINIB] | > 30 µM (inactive) | > 30 µM (inactive) | > 30 µM (inactive) | > 30 µM (inactive) | > 30 µM (inactive) | > 30 µM (inactive) |
| CCOc1cc2ncc(C#N)c(Nc3ccc(F)c(Cl)c3)c2cc1NC(=O)/C=C/CN(C)C [PELITINIB] | > 30 µM (inactive) | > 30 µM (inactive) | > 30 µM (inactive) | > 30 µM (inactive) | > 30 µM (inactive) | > 30 µM (inactive) |
| Cc1nc(Nc2n[nH]c3c2CN(C(=O)N[C@H](CN(C)C)c2ccccc2)C3(C)C)c2sccc2n1 [PF-03758309] | > 30 µM (inactive) | > 30 µM (inactive) | 0.275 µM (active) | 0.09 µM (active) | > 30 µM (inactive) | > 30 µM (inactive) |
| Cc1cnc(NC(=O)Nc2cc(Br)c(C)cc2OC[C@@H]2CNCCO2)cn1 [RABUSERTIB] | > 30 µM (inactive) | > 30 µM (inactive) | > 30 µM (inactive) | > 30 µM (inactive) | > 30 µM (inactive) | > 30 µM (inactive) |
| CO[C@H]1C[C@@H]2CC[C@@H](C)[C@@](O)(O2)C(=O)C(=O)N2CCCC[C@H]2C(=O)O[C@H]([C@H](C)C[C@@H]2CC[C@@H](OP(C)(C)=O)[C@H](OC)C2)CC(=O)[C@H](C)/C=C(\C)[C@@H](O)[C@@H](OC)C(=O)[C@H](C)C[C@H](C)/C=C/C=C/C=C/1C [RIDAFOROLIMUS] | > 30 µM (inactive) | > 30 µM (inactive) | > 30 µM (inactive) | > 30 µM (inactive) | > 30 µM (inactive) | > 30 µM (inactive) |
| N#CC1(c2ccc(NC(=O)c3cccnc3NCc3ccncc3)cc2)CCCC1 [RIVOCERANIB] | > 30 µM (inactive) | > 30 µM (inactive) | > 30 µM (inactive) | > 30 µM (inactive) | > 30 µM (inactive) | > 30 µM (inactive) |
| O=c1[nH]ccc2cc(OC3CCNCC3)ccc12 [SAR-407899 FREE BASE] | > 30 µM (inactive) | > 30 µM (inactive) | > 30 µM (inactive) | > 30 µM (inactive) | > 30 µM (inactive) | > 30 µM (inactive) |
| Cn1cc(-c2cnn3c(N)c(Br)c([C@@H]4CCCNC4)nc23)cn1 [SCH-900776] | > 30 µM (inactive) | > 30 µM (inactive) | > 30 µM (inactive) | > 30 µM (inactive) | > 30 µM (inactive) | > 30 µM (inactive) |

From ChEMBL document CHEMBL3991601, “The target landscape of clinical kinase drugs” (Science, 2017)
